We go through two molecules from patent publication US20240390328A1, “PHARMACEUTICAL COMPOSITION CONTAINING AS ACTIVE INGREDIENT COMPOUND CONJUGATED TO G4 STRUCTURES OF CORONAVIRUSES FOR PREVENTION OR TREATMENT OF CORONAVIRUS INFECTIOUS DISEASES” (priority 2020, published 2024).

Data set [1] deals with SARS-COV-2 RNA G4, position 25197 (Surface glycoprotein). Description: CD thermal melting analysis, G4 No. 19. In kind it is binding. Particulars: G4 No. 19, position 25197, Surface glycoprotein; 15 μM RNA G4, 30 μM compound. On the procedure: (§1) For melting, the samples were heated at 25 to 95° C. at 2° C./min with a data pitch of 0.5° C. CD melting analyses were performed with and without G4-binding compounds. The ratio of RNA: G4-binding compound was set to a molar ratio of 1:2. 15 μM RNA G4 was treated with 30 μM G4-binding compound and incubated at room temperature in a buffer comprising 10 mM Tris-HCl (pH 7.5) and 100 mM KCl for 30 minutes. Ellipticity was measured at 265 nm. Thereafter, data were normalized and plotted in OriginPro 2017 to calculate Tm values.
(§2) In addition, 15 μM RNA G4 was treated with 30 μM compound and incubated, and a CD thermal melting curve of RNA G4 (15 μM) was obtained in the presence or absence of the G4-binding compound. Furthermore, the effect of G4-binding compounds on the stability of SARS-COV-2 G4 was confirmed by measuring the difference in melting temperature (ΔTm). The results are illustrated in FIGS. 6A and 6B.

The subject of data set [2] is SARS-COV-2 RNA G4, position 24215 (Surface glycoprotein). Description: CD thermal melting analysis, G4 No. 17. Particulars: G4 No. 17, position 24215, Surface glycoprotein; 15 μM RNA G4, 30 μM compound. In kind it is binding. On the procedure:
as §1, §2

Data set [3] relates to SARS-COV-2 RNA G4, position 28781 (Nucleocapsid protein). Description: CD thermal melting analysis, G4 No. 22. The data set is classed as binding. Particulars: G4 No. 22, position 28781, Nucleocapsid protein; 15 μM RNA G4, 30 μM compound. On the procedure: as §1, §2
For another data set, the system named is HCoV-OC43. Kind of data set: HCoV-OC43 dose response curve analysis, virion production (plaque assay), HCT-8 cells. Particulars: Betacoronavirus 1, OC43, 0.05 MOI, 72 hours after infection. The data set is classed as cell-based.
Data set [4] deals with SARS-COV-2 RNA G4, position 1574 (NsP2). Kind of data set: CD thermal melting analysis, G4 No. 4. In kind it is binding. The conditions noted are these: G4 No. 4, position 1574, NsP2; 15 μM RNA G4, 30 μM compound. On the procedure: as §1, §2
The test system of data set [5] is SARS-COV-2 RNA G4, position 2714 (NsP2 + NsP3). Kind of data set: CD thermal melting analysis, G4 No. 5. In kind it is binding. The conditions noted are these: G4 No. 5, position 2714, NsP2 + NsP3; 15 μM RNA G4, 30 μM compound. On the procedure: as §1, §2
In data set [6] the test system is 25 G4s predicted for SARS-COV-2. Kind of data set: CD thermal melting analysis, comparison of ΔTm over all G4s. In kind it is binding. The conditions noted are these: for effect on stability of SARS-COV-2 G4 (ΔTm), in words: 15 μM RNA G4, 30 μM compound, FIGS. 6A and 6B; for number of G4s Destabilized: of the 25 SARS-COV-2 G4s.
Data set [7] relates to SARS-COV-2 RNA G4, position 353 (NsP1). Description: CD thermal melting analysis, G4 No. 1. The data set is classed as binding. Particulars: G4 No. 1, position 353, NsP1; 15 μM RNA G4, 30 μM compound. On the procedure:
as §1, §2

Data set [8] deals with SARS-COV-2 RNA G4, position 15208 (NsP12). Description: CD thermal melting analysis, G4 No. 13. The data set is classed as binding. Particulars: G4 No. 13, position 15208, NsP12; 15 μM RNA G4, 30 μM compound. On the procedure:
as §1, §2

Another data set deals with N1-WT-G4-3467 (Nsp3 G4). Description: In-vitro transcription/translation (IVT) analysis, EYFP reporter western blot, N1-WT-G4-3467. Particulars: N1-WT-G4-3467, compound at 15 to 50 μM. In kind it is biochemical, SARS-COV-2. In general terms: A western blot detects proteins with antibodies after separation by electrophoresis.
In data set [9] the test system is SARS-COV-2. Kind of data set: microbe, parasite or virus in culture. In kind it is cell-based. The conditions noted are these: Severe acute respiratory syndrome coronavirus 2, Vero cells, read-out: IC50, virion production.
Data set [10] deals with SARS-COV-2. Kind of data set: microbe, parasite or virus in culture. In kind it is cell-based. Particulars: Severe acute respiratory syndrome coronavirus 2; Vero cells, 0.0125 MOI, 24 hours; read-out: IC50, suppressing SARS-COV-2 infection (N protein expression).
Another data set concerns N1-WT-G4-353 (Nsp1 G4). Description: In-vitro transcription/translation (IVT) analysis, EYFP reporter western blot, N1-WT-G4-353. The data set is classed as biochemical, SARS-COV-2.
Another data set has as its system Vero cells. Kind of data set: Cell viability analysis (EZ Cytox), Vero cells. The data set is classed as cell-based. Particulars: up to 75 μM after 48 hours. On the procedure:
(§3) Human embryonic kidney (HEK293T) cells and Vero cells were maintained in high-glucose Dulbecco's Modified Eagle's Medium (DMEM) supplemented with 10% fetal bovine serum (FBS) and 1% penicillin-streptomycin, and cultured in a humidified incubator at 37° C. and 5% CO2.
(§4) Cytotoxicity was analyzed using an EZ Cytox assay kit (DogenBio, Korea). HEK293T and Vero cells were put into a 96-well plate at a density of 2×10^4 cells/well in a medium volume of 100 μl/well and cultured at 37° C. for 24 hours. After 24 hours, the cells were treated with the G4-binding compound at various concentrations (0.1, 0.5, 1, 2.5, 5.5, 7.5, 10, 25, 50, and 75 μM) and cultured at 37° C. for 24 hours or 48 hours. Cell viability (%) was calculated by measuring the absorbance value at 455 nm (Luminescence multi-mode microplate reader Synergy™ Neo2) and using the following Equation 1. All experiments were performed in triplicate, and cells untreated with the compound were used as a control. DMEM with the EZ Cytox reagent was used as a blank.
(§5) The toxicity of PDS and PhenDC3 was confirmed in HEK293T cells and Vero cells. The results are illustrated in FIGS. 7A to 7D.

The subject of a further data set is N1-Mut-G4-3467. The data set is classed as biochemical, SARS-COV-2. Particulars: N1-Mut-G4-3467, 5, 15, 25 and 50 μM.
The next data set relates to HEK293T cells. Kind of data set: Cell viability analysis (EZ Cytox), HEK293T cells. In kind it is cell-based, Human. Particulars: up to 75 μM. On the procedure:
as §3, §4, §5

Like-named read-outs stand apart in the source and are kept apart here.

The ΔTm is the shift of the melting midpoint relative to a reference. What is called IC50 is the concentration that gives 50% inhibition.

Regarding `CN1CCC[C@H]1CCNC(=O)c1cn2c3c(c(N4CCC(c5cnccn5)C4)c(F)cc3c1=O)Oc1cc3ccccc3cc1-2` (stereo partly drawn) [CX-3543, 15-fluoro-N-[2-[(2S)-1-methylpyrrolidin-2-yl]ethyl]-18-oxo-14-(3-pyrazin-2-ylpyrrolidin-1-yl)-12-oxa-1-azapentacyclo [11.7.1.0^2,11.0^4,9.0^17,21]henicosa-2,4,6,8, 10, 13 (21), 14,16,19-nonaene-19-carboxamide], the “Tm in ° C. with compound” value in [1] was 66.57 °C; in data set [2], 57.16 °C; in [3], 82.9 °C; in data set [4], 53.43 °C; in data set [5] it was 57.69 °C; in [7] it was 72.64 °C. The “Tm in ° C. with compound” value in data set [8] came to 63.87 °C. In addition, the ΔTm in data set [1] was −4.62 °C; in [2], 1.74 °C; in data set [3], 18.2 °C; in data set [4], 0.05 °C; in data set [5], −13.45 °C; in data set [7] it was 1.05 °C. In data set [8], the ΔTm was found to be 6.7 °C. The IC50 with HCoV-OC43 worked out at 1400 nM. For the same molecule, the “effect on stability of SARS-COV-2 G4 (ΔTm), in words” value in data set [6] is recorded as “did not show any noticeable change”. Further, in [6], the “number of G4s Destabilized” value is on record as 6.

On to `NCCOc1cc(C(=O)Nc2cc(OCCN)c3ccccc3n2)nc(C(=O)Nc2cc(OCCN)c3ccccc3n2)c1` [PDS, 4-(2-aminoethoxy)-N2,N6-bis(4-(2-aminoethoxy)quinolin-2-yl)pyridine-2,6-dicarboxamide], for which, in the data set on N1-WT-G4-3467 (Nsp3 G4), the “EYFP expression suppressed by” value worked out at 60%. For the same molecule, the “Tm in ° C. with compound” value was 68.63 °C in data set [1]; 62.93 °C in data set [2]; 86.49 °C in data set [5]; 87.66 °C in data set [7]; 60.16 °C in data set [8]. The ΔTm in data set [1] is −2.56 °C; in data set [2], 7.51 °C; in [5], 15.35 °C; in data set [7] it was 16.07 °C; in data set [8], 2.99 °C. Moreover, the IC50 in the data set on SARS-COV-2 [9] (24 hours after infection) amounted to 1450 nM; with SARS-COV-2 [9] (48 hours after infection) it was 2770 nM; with SARS-COV-2 [10], 9450 nM. Further, the “EYFP expression reduced by” value in the data set on N1-WT-G4-353 (Nsp1 G4) (N1-WT-G4-353, compound at 50 μM) is on record as 65%. Further, the “suppressing EYFP reporter expression” value in the data set on N1-WT-G4-353 (Nsp1 G4) (N1-WT-G4-353, concentrations less than 50 μM) was “not effective”. The “cytotoxicity in Vero cells” value with Vero cells is given as “no cytotoxicity was observed”. The “effect on stability of SARS-COV-2 G4 (ΔTm), in words” value in [6] is recorded as “significantly stabilized most G4s”. Further, the “proportion of the G4s with ΔTm>20° C.” value in data set [6] (among the 25 G4s predicted for SARS-COV-2) is 36%. Also, in [6], the “number of G4s Destabilized” value is given as 2. Also, the “EYFP expression, concentration-dependent suppression” value with N1-Mut-G4-3467 is recorded as “not suppressed”. Further, the “cytotoxicity in HEK293T cells” value with HEK293T cells is “safe to use”.
